Where two headings read alike, the source gives them in different places.
Columns and labels:
TRβ = target: T1, TRβ (Homo sapiens, UniProt P10828); test: TR reporter-gene assay (Gal4 DBD hybrid, luciferase), TRβ; assay type: cell-based; conditions: for T3-SI (selectivity index, EC50 (TRα)/EC50 (TRβ)): class symbols
T1 construct: expressed in transfected cells; host or cells: HEK293
T1 sequence (P10828 217-461 limits assumed): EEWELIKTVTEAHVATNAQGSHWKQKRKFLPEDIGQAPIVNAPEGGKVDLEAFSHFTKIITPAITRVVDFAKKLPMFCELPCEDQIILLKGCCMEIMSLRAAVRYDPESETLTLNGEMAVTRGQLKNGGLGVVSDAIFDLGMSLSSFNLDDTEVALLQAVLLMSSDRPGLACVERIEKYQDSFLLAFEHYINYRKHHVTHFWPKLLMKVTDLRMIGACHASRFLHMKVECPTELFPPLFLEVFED
Method: (§1) Compounds were tested for thyroid-hormone receptor activity using TR reporter-gene assays. Reporter cells used in the assays express a TR-receptor hybrid (either TRα or TRβ) in which the native N-terminal DNA binding domain (DBD) has been replaced with that of the yeast Gal4 DBD. The reporter gene, firefly luciferase, is functionally linked to the Gal4 upstream activation sequence (UAS). Both cell lines were derived from human embryonic kidney (HEK293).
(§2) Step 1: A suspension of reporter cells was prepared in cell recovery medium containing 10% charcoal-stripped FBS, and dispensed into assay plates. The plates were pre-incubated for 6 hours in a cell culture incubator (37° C./5% CO2/85% humidity).
(§3) These intermediate stocks were subsequently diluted directly into compound screening medium containing 10% charcoal-stripped FBS to generate “2×-concentration” treatment media (containing 0.2, 0.4 or 0.8% DMSO).
(§4) Step 3: At the end of the pre-incubation period, culture media were discarded from the assay plates, and all wells received 100 μl of compound screening medium. 100 μl of each of the previously prepared “2×-concentration” treatment media were dispensed into duplicate assay wells, thereby achieving the desired final treatment concentrations. The final concentration of DMSO in all assay wells was 0.1, 0.2 or 0.4%. Assay plates were incubated for 24 hr in a cell culture incubator (37° C./5% CO2/85% humidity).
(§5) Step 4: At the 24 h assay endpoint, treatment media were discarded and 100 µl/well of luciferase detection reagent was added. Relative luminometer units (RLUs) were quantified from each assay well.

TRα = target: T2, TRα (Homo sapiens, UniProt P10827); test: TR reporter-gene assay (Gal4 DBD hybrid, luciferase), TRα; assay type: cell-based
T2 construct: expressed in transfected cells; host or cells: HEK293
T2 sequence (P10827 1-410 isoform P10827-2): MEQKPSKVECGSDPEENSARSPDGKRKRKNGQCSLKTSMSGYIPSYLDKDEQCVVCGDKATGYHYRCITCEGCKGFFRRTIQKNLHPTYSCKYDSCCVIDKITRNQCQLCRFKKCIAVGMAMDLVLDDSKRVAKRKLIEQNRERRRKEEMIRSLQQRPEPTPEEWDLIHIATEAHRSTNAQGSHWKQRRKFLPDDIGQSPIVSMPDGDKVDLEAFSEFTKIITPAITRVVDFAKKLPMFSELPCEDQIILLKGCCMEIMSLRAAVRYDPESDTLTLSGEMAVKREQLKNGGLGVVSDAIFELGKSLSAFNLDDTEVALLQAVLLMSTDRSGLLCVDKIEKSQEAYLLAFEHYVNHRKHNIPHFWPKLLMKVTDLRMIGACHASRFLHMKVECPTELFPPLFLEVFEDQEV
Method: as §1, §2, §3, §4, §5

[1] = HEK293-derived reporter cells, 24 hr treatment, read-out: TRβ EC50
[2] = HEK293-derived reporter cells, 24 hr treatment, read-out: TRα EC50

Structure (SMILES)	T3-SI (selectivity index, EC50 (TRα)/EC50 (TRβ)) (TRβ)	EC50 (TRβ; [1]) [nM]	EC50 (TRα; [2]) [nM]	EC50 (TRβ) [nM]	EC50 (TRα) [nM]
CC(C)c1c(O)ccc(Cc2c(Cl)cc(CC(=O)O)cc2Cl)c1F [Compound 32, 2-(3,5-dichloro-4-(2-fluoro-4-hydroxy-3-isopropylbenzyl)phenyl)acetic acid]	++ (3× < T3-SI ≤ 30×)			< 10	10 to 100
CC(C)c1c(O)ccc(Cc2c(Cl)cc(CNCC(=O)O)cc2Cl)c1F [Compound 110, (3,5-dichloro-4-(2-fluoro-4-hydroxy-3-isopropylbenzyl)benzyl)glycine]	+ (T3-SI ≤ 3×)	100 to 1000	10 to 100		
CC(C)c1c(O)ccc(Cc2c(Cl)cc(OCCCCC(=O)O)cc2Cl)c1F [Compound 54, 5-(3,5-dichloro-4-(2-fluoro-4-hydroxy-3-isopropylbenzyl)phenoxy)pentanoic acid]	+ (T3-SI ≤ 3×)	10 to 100	10 to 100		
CC(c1ccc(F)cc1)c1c(O)ccc(Cc2c(Cl)cc(CC(=O)O)cc2Cl)c1F (stereo not shown) [Compound 37, 2-(3,5-dichloro-4-(2-fluoro-3-(1-(4-fluorophenyl)ethyl)-4-hydroxybenzyl)phenyl)acetic acid]	++ (3× < T3-SI ≤ 30×)	< 10	10 to 100		
CC(C)c1c(O)ccc(Cc2c(Cl)cc(SCC(=O)O)cc2Cl)c1F [Compound 203, 2-((3,5-dichloro-4-(2-fluoro-4-hydroxy-3-isopropylbenzyl)phenyl)thio)acetic acid]	++ (3× < T3-SI ≤ 30×)	10 to 100	10 to 100		
CC(C)c1c(O)ccc(Cc2c(Cl)cc(OCCCC(=O)O)cc2Cl)c1F [Compound 52, 4-(3,5-dichloro-4-(2-fluoro-4-hydroxy-3-isopropylbenzyl)phenoxy)butanoic acid]	+ (T3-SI ≤ 3×)	100 to 1000	100 to 1000		
CONC(=O)Cc1cc(Cl)c(Cc2ccc(O)c(C(C)C)c2F)c(Cl)c1 [Compound 104, 2-(3,5-dichloro-4-(2-fluoro-4-hydroxy-3-isopropylbenzyl)phenyl)-N-methoxyacetamide]	+++ (T3-SI > 30×)	100 to 1000	> 1000		
O=C(O)CNc1cc(Cl)c(Cc2ccc(O)c(-c3cc(OC(F)F)ccc3F)c2F)c(Cl)c1 [Compound 139, (3,5-dichloro-4-((5′-(difluoromethoxy)-2,2′-difluoro-6-hydroxy-[1,1′-biphenyl]-3-yl)methyl)phenyl)glycine]			10 to 100		
CC(=O)NOCc1cc(Cl)c(Cc2ccc(O)c(C(C)C)c2F)c(Cl)c1 [Compound 211, N-((3,5-dichloro-4-(2-fluoro-4-hydroxy-3-isopropylbenzyl)benzyl)oxy)acetamide]			100 to 1000		
O=C(O)Cc1cc(Cl)c(Cc2ccc(O)c(C(=O)N3CCCCC3)c2)c(Cl)c1 [Compound 137, 2-(3,5-dichloro-4-(4-hydroxy-3-(piperidine-1-carbonyl)benzyl)phenyl)acetic acid]		> 1000			
CC(C)c1c(O)ccc(Cc2c(Cl)cc(N(C)CC(=O)O)cc2Cl)c1F [Compound 140, N-(3,5-dichloro-4-(2-fluoro-4-hydroxy-3-isopropylbenzyl)phenyl)-N-methylglycine]			> 1000		
O=C(O)Cc1cc(Cl)c(Cc2ccc(O)c(CN3CCCC3=O)c2)c(Cl)c1 [Compound 138, 2-(3,5-dichloro-4-(4-hydroxy-3-((2-oxopyrrolidin-1-yl)methyl)benzyl)phenyl)acetic acid]			> 1000		

Continued, in another order:

T3-SI (selectivity index, EC50 (TRα)/EC50 (TRβ)) (TRβ)	EC50 (TRβ; [1]) [nM]	EC50 (TRα; [2]) [nM]	Structure (SMILES)	EC50 (TRβ) [nM]	EC50 (TRα) [nM]
+ (T3-SI ≤ 3×)	10 to 100	10 to 100	C/C(=C\c1cc(C)c(Cc2ccc(O)c(C(C)C)c2F)c(Cl)c1)C(=O)O [Compound 248, (E)-3-(3-chloro-4-(2-fluoro-4-hydroxy-3-isopropylbenzyl)-5-methylphenyl)-2-methylacrylic acid]		
++ (3× < T3-SI ≤ 30×)	100 to 1000	100 to 1000	Cc1c(F)c(CSCC(=O)O)cc(Cl)c1Cc1ccc(O)c(C(C)C)c1 [Compound 226, 2-((5-chloro-2-fluoro-4-(4-hydroxy-3-isopropylbenzyl)-3-methylbenzyl)thio)acetic acid]		
++ (3× < T3-SI ≤ 30×)	100 to 1000	100 to 1000	CC(C)c1cc(Cc2c(Cl)cc(NC(=O)CC(=O)O)cc2Cl)ccc1O [Compound 22, 3-((3,5-dichloro-4-(4-hydroxy-3-isopropylbenzyl)phenyl)amino)-3-oxopropanoic acid]		
++ (3× < T3-SI ≤ 30×)	> 1000	> 1000	CC(C)c1cc(Cc2c(Cl)cc(S(=O)(=O)CC(=O)O)cc2Cl)ccc1O [Compound 93, 2-((3,5-dichloro-4-(4-hydroxy-3-isopropylbenzyl)phenyl)sulfonyl)acetic acid]		
++ (3× < T3-SI ≤ 30×)	> 1000	> 1000	Cc1cc(CS(=O)(=O)CC(=O)O)cc(Cl)c1Cc1ccc(O)c(C(C)C)c1 [Compound 245, 2-((3-chloro-4-(4-hydroxy-3-isopropylbenzyl)-5-methylbenzyl)sulfonyl)acetic acid]		
++ (3× < T3-SI ≤ 30×)	< 10	< 10	C=C(Cc1cc(Cl)c(Cc2ccc(O)c(C(C)C)c2F)c(Cl)c1)C(=O)O [Compound 201, 2-(3,5-dichloro-4-(2-fluoro-4-hydroxy-3-isopropylbenzyl)benzyl)acrylic acid]		
++ (3× < T3-SI ≤ 30×)	10 to 100	10 to 100	CC(C)c1cc(Cc2c(Cl)cc(/C=C/CC(=O)O)cc2Cl)ccc1O [Compound 15, (E)-4-(3,5-dichloro-4-(4-hydroxy-3-isopropylbenzyl)phenyl)but-3-enoic acid]		
++ (3× < T3-SI ≤ 30×)	10 to 100	10 to 100	Cc1c(F)c(NCC(=O)O)cc(Cl)c1Cc1ccc(O)c(C(C)C)c1 [Compound 223, (5-chloro-2-fluoro-4-(4-hydroxy-3-isopropylbenzyl)-3-methylphenyl)glycine]		
+ (T3-SI ≤ 3×)	> 1000	100 to 1000	CC(C)c1cc(Cc2c(Cl)cc(CC3NC(=O)NC3=O)cc2Cl)ccc1O (stereo not shown) [Compound 144, 5-(3,5-dichloro-4-(4-hydroxy-3-isopropylbenzyl)benzyl)imidazolidine-2,4-dione]		
+++ (T3-SI > 30×)	> 1000	> 1000	CC(C)c1cc(Cc2c(Cl)cc([S+]([O-])CC(=O)O)cc2Cl)ccc1O (stereo not shown) [Compound 92, 2-((3,5-dichloro-4-(4-hydroxy-3-isopropylbenzyl)phenyl)sulfinyl)acetic acid]		
++ (3× < T3-SI ≤ 30×)	100 to 1000	100 to 1000	C/C(=C\c1cc(Cl)c(Cc2ccc(O)c(C(C)C)c2)c(Cl)c1)C(=O)O [Compound 102, (E)-3-(3,5-dichloro-4-(4-hydroxy-3-isopropylbenzyl)phenyl)-2-methylacrylic acid]		
++ (3× < T3-SI ≤ 30×)	100 to 1000	> 1000	CC(C)c1cc(Cc2c(Cl)cc(OC(F)(F)C(=O)O)cc2Cl)ccc1O [Compound 82, 2-(3,5-dichloro-4-(4-hydroxy-3-isopropylbenzyl)phenoxy)-2,2-difluoroacetic acid]		
++ (3× < T3-SI ≤ 30×)			CC(C)c1c(O)ccc(Cc2c(Cl)cc(NC(=O)C(=O)O)cc2Cl)c1F [Compound 63, 2-((3,5-dichloro-4-(2-fluoro-4-hydroxy-3-isopropylbenzyl)phenyl)amino)-2-oxoacetic acid]		
		> 1000	CC(C)c1cc(Cc2c(Cl)cc(C(CC(=O)O)C(=O)O)cc2Cl)ccc1O (stereo not shown) [Compound 142, 2-(3,5-dichloro-4-(4-hydroxy-3-isopropylbenzyl)phenyl)succinic acid]		

Source: patent publication US12528761B2, “Thyromimetics” (Autobahn Therapeutics, Inc., priority 2020, dated 2026)
